In US5869490A, “Azaheterocyclymethyl derivatives of 2,3,8,9-tetrahydro-7h-1,4-dioxino (2,3-e) indol-8-one” (American Home Products Corporation, priority 1997, dated 1999) one finds IC50 data, which are given here for 7 compounds.

The target of the first test is T1, dopamine D2 receptor (Rattus norvegicus, UniProt P61169).
T1 construct: homogenized rat striatal brain tissue; from tissue; host or cells: rat striatum homogenate
T1 sequence (P61169 whole entry): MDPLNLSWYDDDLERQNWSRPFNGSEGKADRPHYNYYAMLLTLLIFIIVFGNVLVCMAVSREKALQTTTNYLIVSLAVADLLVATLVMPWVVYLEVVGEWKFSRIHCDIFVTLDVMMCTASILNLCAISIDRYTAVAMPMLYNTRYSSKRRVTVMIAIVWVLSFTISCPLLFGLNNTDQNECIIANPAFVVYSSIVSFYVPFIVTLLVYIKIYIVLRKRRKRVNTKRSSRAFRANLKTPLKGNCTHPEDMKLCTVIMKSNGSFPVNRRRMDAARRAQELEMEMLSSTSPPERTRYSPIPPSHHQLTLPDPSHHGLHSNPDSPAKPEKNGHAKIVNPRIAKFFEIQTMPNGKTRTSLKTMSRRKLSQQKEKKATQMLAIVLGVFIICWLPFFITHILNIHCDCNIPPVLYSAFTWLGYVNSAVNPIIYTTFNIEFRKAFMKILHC
Kind of test: Affinity for the dopamine D2 receptor (3H-quinpirole, rat striatal homogenate). The test is classed as binding.
Conditions: not given
As for the experimental part: Affinity for the dopamine D2 receptor was established by a modification of the standard experimental test procedure of Seemen and Schaus, European Journal of Pharmacology 203: 105-109, 1991, wherein homogenized rat striatal brain tissue is incubated with ^3 H-quinpirole and various concentrations of test compound, filtered and washed and counted in a Betaplate scintillation counter.
The term IC50 denotes the concentration needed to halve the response being measured. `O=C1Cc2c(ccc3c2O[C@@H](CN2CCC4(CC2)C(=O)NCN4c2ccccc2)CO3)N1` [Example 3, 2-(4-Oxo-1-phenyl-1,3,8-triaza-spiro[4,5]dec-8-ylmethyl)-2,3,8,9-tetrahydro-7H-1,4-dioxino-[2,3-e]indol-8-one] showed an IC50 of 3.2 nM.
For the compound `O=C1Cc2c(ccc3c2O[C@@H](CN2CCC(n4c(=O)[nH]c5ccccc54)CC2)CO3)N1` [Example 4, 2-[4-(2-Oxo-2,3-dihydro-benzimidazol-1-yl)-piperidin-1-ylmethyl]-2,3,8,9-tetrahydro-7H-1,4-dioxino[2,3-e]indol-8-one], the midpoint of inhibition, the IC50, lay at 4.08 nM.
The compound `O=C1Cc2c(ccc3c2O[C@@H](CN2CC=C(c4ccccc4)CC2)CO3)N1` [Example 5, 2-(4-Phenyl-3,6-dihydro-2H-pyridin-1-ylmethyl)-2,3,8,9-tetrahydro-7H-1,4-dioxino[2,3-e]indol-8-one] gave an IC50 of 1.2 nM.

Staying with this test, now noted: rat striatal brain tissue homogenate, 3H-quinpirole; read-out: D2 Receptor Affinity (IC50 (nM)).
Consider `O=C1Cc2c(ccc3c2O[C@@H](CN2CCc4ccccc4C2)CO3)N1` [Example 1, 2-(3,4-Dihydro-1H-isoguinolin-2-ylmethyl)-2,3,8,9-tetrahydro-7H-1,4-dioxino[2,3-e]indol-8-one], for which the IC50 amounted to 0.35 nM.
As for `O=C1Cc2c(ccc3c2O[C@@H](CN2CCN(c4cccc5[nH]ccc45)CC2)CO3)N1` [Example 6, 2-[4-(1H-Indol-4-yl)-piperazin-1-ylmethyl]-2,3,8,9-tetrahydro-7H-1.4-dioxino[2.3-e]indol-8-one], the IC50 was found to be 4.06 nM.
On the same count and under the same terms, the figure for `O=C1Cc2c(ccc3c2O[C@@H](CN2CCC(C(=O)c4ccc(F)cc4)CC2)CO3)N1` [Example 2, 2-(4-(4-Fluoro-benzoyl)-piperidin-1-ylmethyl]-2,3,8,9-tetrahydro-7H-1,4-dioxino[2,3-e]indol-8-one] is 0.73 nM; for `O=C1Cc2c(c(F)cc3c2O[C@@H](CN2CCc4ccccc4C2)CO3)N1` [Example 7, 2-(3,4-Dihydro-1H-isoguinolin-2-ylmethyl)-6-fluoro-2,3,8,9-tetrahydro-7H-1,4-dioxino[2,3-e]indol-8-one] it is 0.23 nM.
